Reference: ChEMBL document CHEMBL5247667, “Design, synthesis and characterizations of prodrugs of brexanolone” (Bioorg Med Chem Lett, 2023)

What was measured:
[1] = Metabolic stability in human plasma assessed as half life at 1 uM incubated for 60 min by LC-MS/MS method; assay type: ADME, cell-free
[2] = Metabolic stability in human liver S9 fraction assessed as half life at 1 uM incubated for 60 min by LC-MS/MS method; assay type: ADME, subcellular
[3] = Metabolic stability in Sprague-Dawley rat plasma assessed as half life at 1 uM incubated for 60 min by LC-MS/MS method; assay type: ADME, cell-free
[4] = Metabolic stability in beagle dog plasma assessed as half life at 1 uM incubated for 60 min by LC-MS/MS method; assay type: ADME, cell-free, Canis lupus familiaris
[5] = Metabolic stability in beagle dog liver S9 fraction assessed as half life at 1 uM incubated for 60 min by LC-MS/MS method; assay type: ADME, subcellular, Canis lupus familiaris
[6] = Metabolic stability in Sprague-Dawley rat liver S9 fraction assessed as half life at 1 uM incubated for 60 min by LC-MS/MS method; assay type: ADME, subcellular
[7] = Half life in Sprague-Dawley rat at 5 mg/kg, IM administered for 30 mins measured after 24 hrs post dose by LC-MS/MS analysis; assay type: ADME, organism-based; settings: in vivo, time 24.5 hrs
[8] = AUClast in Sprague-Dawley rat at 5 mg/kg, IM administered for 30 mins measured after 24 hrs post dose by LC-MS/MS analysis; assay type: ADME, organism-based; design: time 24.5 hrs, dose 5 mg/kg, route im; settings: in vivo
[9] = Cmax in Sprague-Dawley rat at 5 mg/kg, IM administered for 30 mins measured after 24 hrs post dose by LC-MS/MS analysis; assay type: ADME, organism-based; design: time 24.5 hrs, dose 5 mg/kg, route im; settings: in vivo
[10] = AUClast in Sprague-Dawley rat assessed as BXN at 5 mg/kg, IM administered for 30 mins measured after 24 hrs post dose by LC-MS/MS analysis; assay type: ADME, organism-based; design: time 24.5 hrs, dose 5 mg/kg, route im; settings: in vivo, 24.5 h
[11] = Cmax in Sprague-Dawley rat assessed as BXN at 5 mg/kg, IM administered for 30 mins measured after 24 hrs post dose by LC-MS/MS analysis; assay type: ADME, organism-based; design: time 24.5 hrs, dose 5 mg/kg, route im; settings: in vivo, 24.5 h
[12] = Prodrug conversion in beagle dog assessed as ratio of AUC for compound to BXN at 5 mg/kg,IM and measured after 60 mins by LC-MS/MS analysis; assay type: ADME, organism-based, Canis lupus familiaris; settings: in vivo, 1 h
[13] = Prodrug conversion in Sprague-Dawley rat assessed as ratio of AUC for compound to BXN at 1 mg/kg,IV and measured after 60 mins by LC-MS/MS analysis; assay type: ADME, organism-based; settings: in vivo, 1 h
[14] = Prodrug conversion in Sprague-Dawley rat assessed as ratio of AUC for compound to BXN at 5 mg/kg,IM and measured after 60 mins by LC-MS/MS analysis; assay type: ADME, organism-based; settings: in vivo, 1 h
[15] = Half life in Sprague-Dawley rat assessed as BXN at 1 mg/kg, IV administered for 30 mins measured after 24 hrs post dose by LC-MS/MS analysis; assay type: ADME, organism-based; settings: in vivo, 24.5 h
[16] = AUClast in Sprague-Dawley rat at 1 mg/kg, IV administered for 30 mins measured after 24 hrs post dose by LC-MS/MS analysis; assay type: ADME, organism-based; design: dose 1 mg/kg, time 24.5 hrs, route iv; settings: in vivo
[17] = AUClast in Sprague-Dawley rat assessed as BXN at 1 mg/kg, IV administered for 30 mins measured after 24 hrs post dose by LC-MS/MS analysis; assay type: ADME, organism-based; design: dose 1 mg/kg, time 24.5 hrs, route iv; settings: in vivo, 24.5 h
[18] = Cmax in Sprague-Dawley rat at 1 mg/kg, IV administered for 30 mins measured after 24 hrs post dose by LC-MS/MS analysis; assay type: ADME, organism-based; design: time 24.5 hrs, dose 1 mg/kg, route iv; settings: in vivo
[19] = Cmax in Sprague-Dawley rat assessed as BXN at 1 mg/kg, IV administered for 30 mins measured after 24 hrs post dose by LC-MS/MS analysis; assay type: ADME, organism-based; design: time 24.5 hrs, dose 1 mg/kg, route iv; settings: in vivo, 24.5 h
[20] = Half life in beagle dog assessed as BXN at 5 mg/kg, IM administered for 30 mins measured after 24 hrs post dose by LC-MS/MS analysis; assay type: ADME, organism-based, Canis lupus familiaris; settings: in vivo, 24.5 h
[21] = AUClast in beagle dog at 1 mg/kg, IV administered for 30 mins measured after 24 hrs post dose by LC-MS/MS analysis; assay type: ADME, organism-based, Canis lupus familiaris; design: time 24.5 hrs, dose 1 mg/kg, route iv; settings: in vivo
[22] = AUClast in beagle dog assessed as BXN at 1 mg/kg, IV administered for 30 mins measured after 24 hrs post dose by LC-MS/MS analysis; assay type: ADME, organism-based, Canis lupus familiaris; design: dose 1 mg/kg, time 24.5 hrs, route iv; settings: in vivo, 24.5 h
[23] = AUClast in beagle dog at 5 mg/kg, IM administered for 30 mins measured after 24 hrs post dose by LC-MS/MS analysis; assay type: ADME, organism-based, Canis lupus familiaris; design: dose 5 mg/kg, time 24.5 hrs, route im; settings: in vivo
[24] = AUClast in beagle dog assessed as BXN at 5 mg/kg, IM administered for 30 mins measured after 24 hrs post dose by LC-MS/MS analysis; assay type: ADME, organism-based, Canis lupus familiaris; design: time 24.5 hrs, dose 5 mg/kg, route im; settings: in vivo, 24.5 h
[25] = Cmax in beagle dog at 1 mg/kg, IV administered for 30 mins measured after 24 hrs post dose by LC-MS/MS analysis; assay type: ADME, organism-based, Canis lupus familiaris; design: time 24.5 hrs, dose 1 mg/kg, route iv; settings: in vivo
[26] = Cmax in beagle dog assessed as BXN at 1 mg/kg, IV administered for 30 mins measured after 24 hrs post dose by LC-MS/MS analysis; assay type: ADME, organism-based, Canis lupus familiaris; design: dose 1 mg/kg, time 24.5 hrs, route iv; settings: in vivo, 24.5 h
[27] = Cmax in beagle dog at 5 mg/kg, IM administered for 30 mins measured after 24 hrs post dose by LC-MS/MS analysis; assay type: ADME, organism-based, Canis lupus familiaris; design: time 24.5 hrs, dose 5 mg/kg, route im; settings: in vivo
[28] = Cmax in beagle dog assessed as BXN at 5 mg/kg, IM administered for 30 mins measured after 24 hrs post dose by LC-MS/MS analysis; assay type: ADME, organism-based, Canis lupus familiaris; design: time 24.5 hrs, dose 5 mg/kg, route im; settings: in vivo, 24.5 h
[29] = Prodrug conversion in beagle dog assessed as ratio of AUC for compound to BXN at 1 mg/kg,IV and measured after 60 mins by LC-MS/MS analysis; assay type: ADME, organism-based, Canis lupus familiaris; settings: in vivo, 1 h

**Q.** Which half-life at 1 µM [1] does the source give for `CC(=O)[C@H]1CC[C@H]2[C@@H]3CC[C@H]4C[C@H](OC(=O)OCCN(C)C(=O)C(C)C)CC[C@]4(C)[C@H]3CC[C@]12C` here?
**A.** 4.82 h

**Q.** What about the half-life at 1 µM [2] of the same molecule?
**A.** 0.0717 h

**Q.** Which half-life at 1 µM [3] does the source give for `CC(=O)[C@H]1CC[C@H]2[C@@H]3CC[C@H]4C[C@H](OC(=O)N(C)CCOC(=O)C(C)C)CC[C@]4(C)[C@H]3CC[C@]12C` here?
**A.** 0.0267 h

**Q.** What about the half-life at 1 µM [1] of the same molecule?
**A.** 2.93 h

**Q.** And the half-life at 1 µM [4]?
**A.** 2.3 h

**Q.** What about the half-life at 1 µM [2] of the same molecule?
**A.** 0.015 h

**Q.** And the half-life at 1 µM [5]?
**A.** 1.8 min

**Q.** With `CCCCCCCC(=O)O[C@@H]1CC[C@@]2(C)[C@@H](CC[C@@H]3[C@@H]2CC[C@]2(C)[C@@H](C(C)=O)CC[C@@H]32)C1` as the molecule, how does the half-life at 1 µM [1] read?
**A.** > 5 h

**Q.** And the half-life at 1 µM [2]?
**A.** 0.572 h

**Q.** For `CCCCCC(=O)O[C@@H]1CC[C@@]2(C)[C@@H](CC[C@@H]3[C@@H]2CC[C@]2(C)[C@@H](C(C)=O)CC[C@@H]32)C1`, which half-life at 1 µM [3] is on record?
**A.** > 4.82 h

**Q.** And the half-life at 1 µM [1]?
**A.** > 5 h

**Q.** What about the half-life at 1 µM [2] of the same molecule?
**A.** 0.382 h

**Q.** What about the half-life at 1 µM [6] of the same molecule?
**A.** 4.7 min

**Q.** And the half-life [7]?
**A.** 7.94 h

**Q.** What about the AUC(0-t) at 24.5 h [8] of the same molecule?
**A.** 716 ng·h/mL

**Q.** What about the Cmax [9] of the same molecule?
**A.** 130 ng/mL

**Q.** And the AUClast [10]?
**A.** 67.9 ng·h/mL

**Q.** And the Cmax [11]?
**A.** 12.9 ng/mL

**Q.** And the “Ratio AUC” value [12]?
**A.** 0.09

**Q.** Which half-life at 1 µM [3] does the source give for `CC(=O)[C@H]1CC[C@H]2[C@@H]3CC[C@H]4C[C@H](OC(=O)OCCOC(=O)C(C)C)CC[C@]4(C)[C@H]3CC[C@]12C` here?
**A.** < 0.05 h

**Q.** And the half-life at 1 µM [1]?
**A.** 1.5 h

**Q.** And the half-life at 1 µM [4]?
**A.** 1.53 h

**Q.** What about the half-life at 1 µM [2] of the same molecule?
**A.** 0.0417 h

**Q.** And the half-life at 1 µM [5]?
**A.** 2.5 min

**Q.** And the “Ratio AUC” value [13]?
**A.** > 390

**Q.** What about the “Ratio AUC” value [14] of the same molecule?
**A.** 28

**Q.** And the half-life [7]?
**A.** 2.39 h

**Q.** What about the AUClast [10] of the same molecule?
**A.** 390 ng·h/mL

**Q.** What about the Cmax [11] of the same molecule?
**A.** 81.2 ng/mL

**Q.** What about the t1/2 [15] of the same molecule?
**A.** 13.5 h

**Q.** What about the AUC(0-t) at 24.5 h [16] of the same molecule?
**A.** 9.03 ng·h/mL

**Q.** And the AUClast [17]?
**A.** 256 ng·h/mL

**Q.** What about the Cmax [18] of the same molecule?
**A.** 45.6 ng/mL

**Q.** What about the Cmax [19] of the same molecule?
**A.** 119 ng/mL

**Q.** What about the t1/2 [20] of the same molecule?
**A.** 53.3 h

**Q.** What about the AUC(0-t) at 24.5 h [21] of the same molecule?
**A.** 238 ng·h/mL

**Q.** What about the AUClast [22] of the same molecule?
**A.** 24 ng·h/mL

**Q.** And the AUC(0-t) at 24.5 h [23]?
**A.** 36.5 ng·h/mL

**Q.** And the AUClast [24]?
**A.** 119 ng·h/mL

**Q.** What about the Cmax [25] of the same molecule?
**A.** 590 ng/mL

**Q.** What about the Cmax [26] of the same molecule?
**A.** 41.9 ng/mL

**Q.** And the Cmax [27]?
**A.** 31.4 ng/mL

**Q.** And the Cmax [28]?
**A.** 11.3 ng/mL

**Q.** And the “Ratio AUC” value [29]?
**A.** 0.1

**Q.** What about the “Ratio AUC” value [12] of the same molecule?
**A.** 3.3

**Q.** What does the source list for `CC(=O)OCCCCC(=O)O[C@@H]1CC[C@@]2(C)[C@@H](CC[C@@H]3[C@@H]2CC[C@]2(C)[C@@H](C(C)=O)CC[C@@H]32)C1`?
**A.** half-life at 1 µM [1]: 1.78 h; half-life at 1 µM [4]: 1.45 h; half-life at 1 µM [2]: 0.0133 h; half-life at 1 µM [5]: 1 min

**Q.** Which half-life at 1 µM [1] does the source give for `COC(=O)N(C)CCOC(=O)O[C@@H]1CC[C@@]2(C)[C@@H](CC[C@@H]3[C@@H]2CC[C@]2(C)[C@@H](C(C)=O)CC[C@@H]32)C1` here?
**A.** 4.82 h

**Q.** And the half-life at 1 µM [2]?
**A.** 0.0117 h
